Data taken from US11464777B2, “Pharmaceutical composition for the treatment of pulmonary arterial hypertension” (Actelion Pharmaceuticals Ltd, priority 2018, dated 2022).

Key:
[1] = Drug-drug interaction observations
[2] = test system: CYP3A4; assay: CYP3A4 induction in human hepatocytes; format: in vitro ADME
[3] = test system: ET receptors (ETA and ETB); settings: cited from earlier work
[4] = cited from earlier work
[5] = biological target: T1, human PXR (Homo sapiens, UniProt O75469); assay: Activation of human PXR; format: cell-based
T1 sequence (O75469 1-434): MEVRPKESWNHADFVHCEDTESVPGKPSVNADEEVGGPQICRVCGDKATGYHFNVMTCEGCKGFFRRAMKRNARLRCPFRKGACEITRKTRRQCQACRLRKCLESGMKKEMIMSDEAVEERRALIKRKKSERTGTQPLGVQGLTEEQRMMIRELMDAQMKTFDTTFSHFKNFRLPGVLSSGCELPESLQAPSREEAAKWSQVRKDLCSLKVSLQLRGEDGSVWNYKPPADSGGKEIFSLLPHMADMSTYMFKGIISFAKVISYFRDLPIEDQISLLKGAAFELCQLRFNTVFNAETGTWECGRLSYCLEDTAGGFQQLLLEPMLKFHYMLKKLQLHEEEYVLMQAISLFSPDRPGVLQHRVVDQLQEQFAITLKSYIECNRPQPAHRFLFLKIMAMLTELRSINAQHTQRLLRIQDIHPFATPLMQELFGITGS

[6] = test system: plasma ET-1; settings: healthy human subjects, 1, 3, 10 and 30 mg; cited from earlier work
[7] = biological target: T2, BCRP transporters (Homo sapiens, UniProt Q9UNQ0); assay: Effect on pharmacokinetics of rosuvastatin (BCRP transporters); format: in vivo; settings: macitentan 10 mg per day o.d.
T2 construct: BCRP is an efflux pump located in the gut, liver canalicular membrane, and kidney; from tissue; host or cells: gut, liver, kidney of dosed subjects (in vivo)
T2 sequence (Q9UNQ0 1-655): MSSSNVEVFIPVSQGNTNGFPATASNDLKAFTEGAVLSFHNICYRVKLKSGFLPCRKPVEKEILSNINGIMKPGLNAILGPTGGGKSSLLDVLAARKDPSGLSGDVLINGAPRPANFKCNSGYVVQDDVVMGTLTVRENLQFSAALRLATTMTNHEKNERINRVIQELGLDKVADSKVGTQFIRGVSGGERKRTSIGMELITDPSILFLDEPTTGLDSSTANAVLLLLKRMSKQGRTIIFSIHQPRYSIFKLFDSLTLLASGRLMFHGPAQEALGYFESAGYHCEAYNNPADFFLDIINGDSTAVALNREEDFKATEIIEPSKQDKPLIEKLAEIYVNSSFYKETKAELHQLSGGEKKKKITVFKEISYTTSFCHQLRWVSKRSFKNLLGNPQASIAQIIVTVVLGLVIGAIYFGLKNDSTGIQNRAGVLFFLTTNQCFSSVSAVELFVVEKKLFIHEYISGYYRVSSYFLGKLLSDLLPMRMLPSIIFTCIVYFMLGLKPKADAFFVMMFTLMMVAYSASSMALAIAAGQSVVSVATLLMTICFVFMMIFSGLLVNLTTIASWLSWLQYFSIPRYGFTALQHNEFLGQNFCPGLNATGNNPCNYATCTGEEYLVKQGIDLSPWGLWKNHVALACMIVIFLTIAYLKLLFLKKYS
From the text: BCRP is an efflux pump located in the gut, liver canalicular membrane, and kidney, and is exposed to intracellular drug concentrations in the liver and the kidney.

[8] = Effect of macitentan on decrease in hemoglobin concentration, pooled Phase I studies, Emax model; format: in vivo, human; settings: healthy volunteers
From the text: Hemoglobin measurements were pooled from 3 Phase I clinical studies in healthy volunteers:
Study AC-055-102: Investigation of the PK, PD, safety and tolerability of macitentan in male subjects (the study protocol is described in the following publication: Sidharta et al., Safety, tolerability, pharmacokinetics, and pharmacodynamics of macitentan, an endothelin receptor antagonist, in an ascending multiple-dose study in healthy subjects. J. Clin. Pharmacol. (2013), 53(11),1131-1138)
Study AC-055-116: Investigation of the PK, PD, safety and tolerability of macitentan in male Japanese subjects (the study protocol is described in the following publication: Yokoyama et al., Tolerability, Safety, Pharmacokinetics, and Pharmacodynamics of Macitentan, a New Endothelin Receptor Antagonist, in Healthy Japanese Male Subjects. Rinsho yakuri/Japanese Journal of Clinical Pharmacology and Therapeutics (2016), 47, 143-150) […]
Hemoglobin concentrations measured in the morning of Day 11 of macitentan treatment and at baseline on Day −1 were used in the analysis. […]

[9] = test system: rats; settings: cited from earlier work

NS(=O)(=O)Nc1ncnc(OCCOc2ncc(Br)cn2)c1-c1ccc(Br)cc1 [ACT-132577]
Drug-Drug Interaction [1]: No Drug-Drug Interaction has been observed
CYP3A4 mRNA and enzyme activity [2]: concentration-dependent increases
affinity for the ET receptors relative to parent compound [3]: lower affinity
time to peak plasma concentration ([4]; after the first dose of macitentan): about 30 hours
half-life in humans ([4]; humans): approximately 48 hours
plasma concentrations relative to macitentan ([4]; humans): higher plasma concentrations than macitentan
EC50 [5]: 7.2 to 8.7 µM

CCCNS(=O)(=O)Nc1ncnc(OCCOc2ncc(Br)cn2)c1-c1ccc(Br)cc1 [macitentan, propylsulfamic acid [5-(4-bromo-phenyl)-6-[2-(5-bromo-pyrimidin-2-yloxy)-ethoxy]-pyrimidin-4-yl]-amide]
plasma ET-1 concentrations at steady-state [6]: dose-dependent increase, with no further increase beyond the 10 mg oral dose
effect on the pharmacokinetics of 1 mg rosuvastatin [7]: has not shown any effect
Drug-Drug Interaction [1]: No Drug-Drug Interaction has been observed
dose at which effect on hemoglobin decrease plateaus ([8]; Day 11 vs baseline Day -1): 10 mg
maximum effect on hemoglobin decrease (Emax) ([8]; Day 11 vs baseline Day -1, nonlinear regression): around 1.23 g/dL
CYP3A4 mRNA and enzyme activity [2]: concentration-dependent increases
dose of maximal or near-maximal effect in rats ([9]; EMA Assessment Report): 10 mg/kg
maximal effective dose in rats ([9]; Iglarz 2014, Kunita-Takanezawa 2014): 30 mg/kg
time to steady state ([4]; humans, repeated administration): steady state is reached by the third day of administration
absorption into the plasma ([4]; humans): absorbed slowly
half-life in humans ([4]; humans): about 16 hours
EC50 [5]: 1.1 to 1.2 µM
